# Experimental data published in US12648986B2, “PLD for use in combination in the treatment of coronavirus” (PHARMA MAR, S.A., priority 2020, dated 2026).
# Like-named read-outs stand apart in the source and are kept apart here.
# Legend:
# SARS-CoV-2 [1] = assay: Cytopathic effect on Vero E6 cells exposed to SARS-CoV-2 (CellTiter-Glo); assay type: cell-based; conditions: for IC50: read-out: mean IC50 value and SD, SARS-CoV-2-induced cytopathic effect
# SARS-CoV-2 [2] = assay: Vero E6 cells infected with SARS-CoV-2, direct quantitation of nucleocapsid (N) protein; assay type: cell-based; conditions: Severe acute respiratory syndrome coronavirus 2, Vero C1008, two studies, read-out: IC50, SARS-CoV-2 growth in vitro
# SARS-CoV-2 [3] = assay: SARS-CoV-2 replication in human stem cell-derived pneumocyte like cells; assay type: cell-based; conditions: 10 nM plitidepsin for 1 hour before infection, 48 hour incubation
# Method: Several in vitro experiments aimed at determining the effect of plitidepsin on SARS-CoV-2 were carried out and are disclosed herein. […] In another study, human stem cell-derived pneumocyte like cells were prophylactically exposed to 10 nm plitidepsin for 1 hour and then infected with SARS-CoV-2 (4×10^4 plaque forming units). After a 48 hour incubation period, both antiviral and cytotoxic plitidepsin effects were determined.
# SARS-CoV-2 [4] = assay: Mouse model of adenovirus-mediated hACE2 infected with SARS-CoV-2; assay type: in vivo
# SARS-CoV-2 [5] = assay: K18-hACE2 transgenic mice infected with SARS-CoV-2; assay type: in vivo
# CD45+ cells = assay: Ex vivo cytokine expression in CD45+ cells from broncho-alveolar lavages of mice, LPS-B5 stimulation; conditions: cells from plitidepsin treated mice
# From the text: An ex vivo study assessed the effect of plitidepsin on expression of the cytokines IL 6, IL 10, and TNFα in the lungs of mice.
# [6] = tested on: human stem cell-derived pneumocyte like cells; conditions: 10 nm plitidepsin, 48 hour incubation
# eEF1A = eEF1A (Oryctolagus cuniculus, UniProt Q71V39); assay: Binding of 14C-plitidepsin to purified eEF1A; conditions: eEF1A purified from rabbit muscle
# Chain of eEF1A (Q71V39 whole entry): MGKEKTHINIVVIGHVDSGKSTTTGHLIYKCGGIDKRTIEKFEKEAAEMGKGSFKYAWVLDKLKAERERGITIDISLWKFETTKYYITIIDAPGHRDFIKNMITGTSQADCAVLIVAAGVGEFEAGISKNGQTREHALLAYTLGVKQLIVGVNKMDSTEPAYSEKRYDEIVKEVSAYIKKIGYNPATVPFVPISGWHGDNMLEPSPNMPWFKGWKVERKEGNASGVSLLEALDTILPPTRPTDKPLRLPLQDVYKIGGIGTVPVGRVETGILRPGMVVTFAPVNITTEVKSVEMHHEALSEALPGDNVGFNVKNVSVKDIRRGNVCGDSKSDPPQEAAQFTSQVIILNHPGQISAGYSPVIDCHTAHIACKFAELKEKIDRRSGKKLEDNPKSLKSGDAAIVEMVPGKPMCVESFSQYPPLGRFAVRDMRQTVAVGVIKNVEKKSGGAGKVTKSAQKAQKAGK
# [7] = Severe acute respiratory syndrome coronavirus 2, Vero C1008, 72 h
compound,measurement,setting,value
"CCN(CCO)CCCC(C)Nc1ccnc2cc(Cl)ccc12 (stereo not shown) [Hydroxychloroquine, hydroxychloroquine]",IC50,SARS-CoV-2 [1]; [7],9300 ± 11100 nM
same,cytotoxic effects of the drug at concentrations inhibiting viral-induced cytopathic effect,"Vero E6 cells; Vero E6, absence of virus",no cytotoxic effects of the drug were observed
"CC[C@H](C)[C@H]1NC(=O)[C@@H](NC(=O)[C@@H](CC(C)C)N(C)C(=O)[C@@H]2CCCN2C(=O)C(C)=O)[C@@H](C)OC(=O)[C@H](Cc2ccc(OC)cc2)N(C)C(=O)[C@@H]2CCCN2C(=O)[C@H](CC(C)C)NC(=O)[C@@H](C)C(=O)[C@H](C(C)C)OC(=O)C[C@@H]1O [PLD, (−)-(3S,6R,7S,10R,11S,15S,17S,20S,25aS)-11-hydroxy-3-(4-methoxybenzyl)-2,6,17-trimethyl-15-(1-methylethyl)-7-[[(2R)-4-methyl-2-[methyl[[(2S)-1-(2-oxopropanoyl)pyrrolidin-2-yl]carbonyl]amino]pentanoyl]amino]-10-[(1S)-1-methylpropyl]-20-(2-methylpropyl)tetradecahydro-15H-pyrrolo[2,1-f]-[1,15,4,7,10,20]dioxatetrazacyclotricosine-1,4,8,13,16,18,21(17H)-heptaone]",IC50,SARS-CoV-2 [1]; [7],51 ± 20 nM
same,IC50,SARS-CoV-2 [2],0.7 to 3 nM
same,replication of SARS-CoV-2,SARS-CoV-2 [3],completely eliminated replication of SARS-CoV-2
same,antiviral effects in vivo,SARS-CoV-2 [4],potent antiviral effects
same,antiviral effects in vivo,SARS-CoV-2 [5],potent antiviral effects
same,"IL 6, IL 10 and TNFα in CD45+ cells upon LPS-B5 stimulation vs nonstimulated controls",CD45+ cells,failed to show a marked increase
same,cytotoxic effects of the drug at concentrations inhibiting viral-induced cytopathic effect,"Vero E6 cells; Vero E6, absence of virus",no cytotoxic effects of the drug were observed
same,cytotoxicity against pneumocyte like cells,[6],no observable cytotoxicity
same,affinity for eEF1A,eEF1A,high affinity
same,rate of dissociation from eEF1A,eEF1A,low rate of dissociation
MDL28170 [MDL 28170],IC50,"SARS-CoV-2 [1]; Vero E6, single drug, 3 days post infection, independent experiments with two replicates each",140 ± 60 nM
same,cytotoxic effects of the drug at concentrations inhibiting viral-induced cytopathic effect,"Vero E6 cells; Vero E6, absence of virus",no cytotoxicity of the drug was observed
nelfinavir mesylate hydrate,capacity to inhibit SARS-CoV-2-induced cytopathic effect,"SARS-CoV-2 [1]; Vero E6, 100 μM to 0.0512 nM",confirmed to have in vitro capacity to inhibit SARS-CoV-2-induced cytopathic effect
same,cytotoxic effects of the drug at concentrations inhibiting viral-induced cytopathic effect,Vero E6 cells,no cytotoxicity of the drug was observed
